Measurements published in ChEMBL document CHEMBL1201862, “PubChem BioAssay data set” (2004).
The source made the active and inactive calls.

Tests used:
[1] = loss of viability in HepG2 cells – cell-based, CellTiter-Glo, cherry-picked, cytotoxicity control for Shn3 inhibitor project, dose response (AID 624134); assay type: functional
[2] = non-specific 3'UTR reporter inhibition in Clone20-Shn3RL – cell-based, Renilla luciferase, cherry-picked, counter-screen for Shn3 inhibitor project, dose response (AID 624133); assay type: functional
[3] = reduction of Shn3 3'UTR-driven luciferase in osteoblasts – cell-based, Clone20 osteoblasts, firefly luciferase, cherry-picked, dose response (AID 624132); assay type: functional;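 further: firefly luciferase luminescence from reporter carrying the Shn3 3'UTR in osteoblasts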
Protein Wnt-3a = Protein Wnt-3a (Mus musculus, UniProt P27467); assay: antagonism of Wnt3a pathway luciferase reporter – Wnt-LIGHT cells, luminescence, selectivity assay for Gli-SUFU antagonist project, dose response (AID 651570); assay type: functional; conditions: read-out: IC50_Mean;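 further: Wnt-LIGHT reporter cells stimulated with conditioned medium from Wnt3a-producing cells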
Chain of Protein Wnt-3a (P27467 whole entry): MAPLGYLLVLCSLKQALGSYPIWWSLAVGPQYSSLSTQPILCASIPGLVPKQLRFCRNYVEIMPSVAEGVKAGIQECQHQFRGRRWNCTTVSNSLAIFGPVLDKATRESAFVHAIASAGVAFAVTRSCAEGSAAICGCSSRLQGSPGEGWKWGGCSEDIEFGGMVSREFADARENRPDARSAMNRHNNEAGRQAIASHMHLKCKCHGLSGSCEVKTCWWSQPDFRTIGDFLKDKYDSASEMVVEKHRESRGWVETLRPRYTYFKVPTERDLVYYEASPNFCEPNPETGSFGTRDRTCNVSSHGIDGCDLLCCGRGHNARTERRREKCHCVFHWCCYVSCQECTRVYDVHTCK

[4] = mammalian cell viability loss – Alamar Blue, dry powder, cytotoxicity control for antifungal single agent project, dose response (AID 602188); assay type: functional, cell-based
[5] = biological target: ATP-binding cassette sub-family B member 6 (Homo sapiens, UniProt Q9NP58); assay: concentration-dependent ABCB6 porphyrin transport blockade – K562-ABCB6 cells, flow cytometry, cherry pick 1, dose response (AID 623955); assay type: functional; conditions: read-out: EC50_MICROM
Chain of ATP-binding cassette sub-family B member 6 (Q9NP58 whole entry): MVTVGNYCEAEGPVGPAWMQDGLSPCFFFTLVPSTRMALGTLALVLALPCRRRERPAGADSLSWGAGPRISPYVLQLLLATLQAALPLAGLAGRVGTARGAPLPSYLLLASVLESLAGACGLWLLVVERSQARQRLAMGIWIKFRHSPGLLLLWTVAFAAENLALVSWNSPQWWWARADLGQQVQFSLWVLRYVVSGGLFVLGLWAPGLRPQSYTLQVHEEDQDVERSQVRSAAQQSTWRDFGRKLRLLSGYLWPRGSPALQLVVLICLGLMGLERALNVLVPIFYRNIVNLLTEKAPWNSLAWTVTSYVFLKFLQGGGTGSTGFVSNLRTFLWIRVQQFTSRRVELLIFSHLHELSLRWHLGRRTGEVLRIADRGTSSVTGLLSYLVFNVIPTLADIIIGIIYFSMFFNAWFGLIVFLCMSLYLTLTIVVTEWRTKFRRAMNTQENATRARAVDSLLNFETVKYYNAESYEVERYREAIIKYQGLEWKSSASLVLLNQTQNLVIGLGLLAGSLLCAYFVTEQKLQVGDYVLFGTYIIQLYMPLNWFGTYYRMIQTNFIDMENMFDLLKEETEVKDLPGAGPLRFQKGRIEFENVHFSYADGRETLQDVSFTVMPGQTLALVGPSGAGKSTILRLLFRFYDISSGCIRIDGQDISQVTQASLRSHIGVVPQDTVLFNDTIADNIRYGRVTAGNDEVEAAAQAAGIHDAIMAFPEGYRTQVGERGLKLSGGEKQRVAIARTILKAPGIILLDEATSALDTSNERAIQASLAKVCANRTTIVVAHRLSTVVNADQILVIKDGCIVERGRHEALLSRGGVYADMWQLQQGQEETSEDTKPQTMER

Nonstructural protein 1 = Nonstructural protein 1 (Influenza A virus, UniProt Q194T2); assay type: functional, Influenza A virus (A/California/07/2009(H1N1))
Chain of Nonstructural protein 1 (Q194T2 whole entry): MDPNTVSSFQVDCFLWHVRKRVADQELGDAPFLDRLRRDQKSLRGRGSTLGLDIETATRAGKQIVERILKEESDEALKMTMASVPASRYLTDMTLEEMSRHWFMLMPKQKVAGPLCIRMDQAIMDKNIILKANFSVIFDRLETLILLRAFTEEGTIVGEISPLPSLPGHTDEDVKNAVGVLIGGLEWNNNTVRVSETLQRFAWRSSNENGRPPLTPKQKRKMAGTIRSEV

[6] = bead-based luminescence quenchers, dual-tagged ARNT – biochemical, AlphaScreen, cherry-pick, artefact control for ARNT-TACC3 interaction inhibitor project, dose response (AID 651705); assay type: functional;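 further: AlphaScreen bead proximity signal that flags compounds interfering with the detection technology; potency reflects signal decrease which marks the compound as an assay artifact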
Interleukin-8 = Interleukin-8 (Homo sapiens, UniProt P10145); assay: Dose Response confirmation of uHTS small molecule hits for cystic fibrosis induced NFkb Inhibitors in a PAF-induced IL8 counterscreen.; assay type: functional; conditions: read-out: IC50_Mean
Chain of Interleukin-8 (P10145 whole entry): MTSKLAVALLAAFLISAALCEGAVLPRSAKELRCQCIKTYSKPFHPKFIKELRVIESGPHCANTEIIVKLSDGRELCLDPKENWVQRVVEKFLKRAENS

For COCCOc1nc2c(c(=O)n(C)c(=O)n2C)n1Cc1cccc(OC)c1, the AC50 [1] was 59.9 µM (active), the AC50 [2] was 4.09 µM (active) and the AC50 [3] was 2.23 µM (active). The IC50 (Protein Wnt-3a) was 6.29 µM (active).

For O=C(Nc1nc(-c2ccccn2)cs1)c1ccccc1, the AC50 [4] was 7.19 µM (active).

In the case of C[N+](C)(C)CC1CCCC(C[N+](C)(C)C)C1=O (centres undefined), the EC50 [5] is reported as 4.14 µM (active).

With COc1cc([N+](=O)[O-])cc(/C=N/NC(=O)Cn2cncn2)c1O the IC50 (Nonstructural protein 1) was 10.1 µM (active) and the AC50 [6] was 85 µM (active).

In the case of Cc1ccc2occ(/C=N/NC(=O)c3ccccc3Br)c(=O)c2c1, the IC50 (Interleukin-8) is reported as 3.77 µM (active).
